In brackets after ≈: the same amount, converted by molar mass.
Legend:
Format in all cases: functional
[1] = tested on: Radical scavenging activity; assay: Antioxidant activity assessed as DPPH free radical scavenging activity by spectrophotometry
[2] = tested on: Radical scavenging activity; assay: Antioxidant activity assessed as DPPH free radical scavenging activity at 20 ug/ml by spectrophotometry
[3] = Antioxidant activity assessed as reduction of ferric ion to ferrous ion by FRAP assay

| Compound | IC50 [1] [µg/mL] | Activity [2] [%] | IC50 [3] [µg/mL] |
| --- | --- | --- | --- |
| O=c1[nH]c(=S)[nH]c2c1C(c1ccccc1)Nc1nc3c(cc1-2)-c1[nH]c(=S)[nH]c(=O)c1C(c1ccccc1)N3 (stereo not drawn) | 14.25 (≈ 26.5 µM) | 70.4 | 33.5 (≈ 62.3 µM) |
| O=c1[nH]c2c(c(=O)[nH]1)C(c1ccc(Cl)cc1)Nc1cc3c(cc1-2)NC(c1ccc(Cl)cc1)c1c-3[nH]c(=O)[nH]c1=O (stereo not drawn) | 11.8 (≈ 20.6 µM) | 85.2 | 23.21 (≈ 40.5 µM) |
| O=c1[nH]c2c(c(=O)[nH]1)C(c1ccc([N+](=O)[O-])cc1)Nc1cc3c(cc1-2)NC(c1ccc([N+](=O)[O-])cc1)c1c-3[nH]c(=O)[nH]c1=O (stereo not drawn) | 12.44 (≈ 20.9 µM) | 80.9 | 25.01 (≈ 42.1 µM) |
| O=c1[nH]c(=S)[nH]c2c1C(c1ccccc1Cl)Nc1nc3c(cc1-2)-c1[nH]c(=S)[nH]c(=O)c1C(c1ccccc1Cl)N3 (stereo not drawn) | 12.41 (≈ 20.5 µM) | 80.6 | 25.07 (≈ 41.3 µM) |
| O=c1[nH]c2c(c(=O)[nH]1)C(c1cccc([N+](=O)[O-])c1)Nc1nc3c(cc1-2)-c1[nH]c(=O)[nH]c(=O)c1C(c1cccc([N+](=O)[O-])c1)N3 (stereo not drawn) | 14.24 (≈ 23.9 µM) | 70.2 | 34.9 (≈ 58.6 µM) |
| O=c1[nH]c(=S)[nH]c2c1C(c1cccc([N+](=O)[O-])c1)Nc1cc3c(cc1-2)NC(c1cccc([N+](=O)[O-])c1)c1c-3[nH]c(=S)[nH]c1=O (stereo not drawn) | 12.68 (≈ 20.2 µM) | 79.3 | 33.7 (≈ 53.8 µM) |
| O=c1[nH]c2c(c(=O)[nH]1)C(c1ccccc1[N+](=O)[O-])Nc1nc3c(cc1-2)-c1[nH]c(=O)[nH]c(=O)c1C(c1ccccc1[N+](=O)[O-])N3 (stereo not drawn) | 13.56 (≈ 22.8 µM) | 74 | 31.39 (≈ 52.7 µM) |
| O=c1[nH]c(=S)[nH]c2c1C(c1ccc(Cl)cc1)Nc1nc3c(cc1-2)-c1[nH]c(=S)[nH]c(=O)c1C(c1ccc(Cl)cc1)N3 (stereo not drawn) | 12.36 (≈ 20.4 µM) | 80.9 | 25 (≈ 41.2 µM) |
| O=c1[nH]c2c(c(=O)[nH]1)C(c1ccc(Cl)cc1)Nc1nc3c(cc1-2)-c1[nH]c(=O)[nH]c(=O)c1C(c1ccc(Cl)cc1)N3 (stereo not drawn) | 12.35 (≈ 21.5 µM) | 81.1 | 24.41 (≈ 42.5 µM) |
| O=c1[nH]c2c(c(=O)[nH]1)C(c1ccc([N+](=O)[O-])cc1)Nc1nc3c(cc1-2)-c1[nH]c(=O)[nH]c(=O)c1C(c1ccc([N+](=O)[O-])cc1)N3 (stereo not drawn) | 13.48 (≈ 22.6 µM) | 74.2 | 26.06 (≈ 43.8 µM) |
| O=c1[nH]c(=S)[nH]c2c1C(c1ccccc1[N+](=O)[O-])Nc1cc3c(cc1-2)NC(c1ccccc1[N+](=O)[O-])c1c-3[nH]c(=S)[nH]c1=O (stereo not drawn) | 12.15 (≈ 19.4 µM) | 82 | 29.5 (≈ 47.1 µM) |
| O=c1[nH]c2c(c(=O)[nH]1)C(c1ccccc1)Nc1cc3c(cc1-2)NC(c1ccccc1)c1c-3[nH]c(=O)[nH]c1=O (stereo not drawn) | 12.15 (≈ 24.1 µM) | 82 | 32.76 (≈ 64.9 µM) |
| O=c1[nH]c2c(c(=O)[nH]1)C(c1ccccc1)c1ccccc1N2 (stereo not drawn) | 18.91 (≈ 64.9 µM) | – | – |
| O=c1[nH]c(=S)[nH]c2c1C(c1ccccc1Cl)Nc1cc3c(cc1-2)NC(c1ccccc1Cl)c1c-3[nH]c(=S)[nH]c1=O (stereo not drawn) | 11.99 (≈ 19.8 µM) | 84.1 | 24.46 (≈ 40.4 µM) |
| O=c1[nH]c2c(c(=O)[nH]1)C(c1ccccc1Cl)Nc1cc3c(cc1-2)NC(c1ccccc1Cl)c1c-3[nH]c(=O)[nH]c1=O (stereo not drawn) | 12.05 (≈ 21 µM) | 84 | 24.01 (≈ 41.9 µM) |
| O=c1[nH]c2c(c(=O)[nH]1)C(c1cccc([N+](=O)[O-])c1)Nc1cc3c(cc1-2)NC(c1cccc([N+](=O)[O-])c1)c1c-3[nH]c(=O)[nH]c1=O (stereo not drawn) | 12.39 (≈ 20.8 µM) | 81.7 | 33.28 (≈ 56 µM) |
| O=c1[nH]c(=S)[nH]c2c1C(c1ccc([N+](=O)[O-])cc1)Nc1nc3c(cc1-2)-c1[nH]c(=S)[nH]c(=O)c1C(c1ccc([N+](=O)[O-])cc1)N3 (stereo not drawn) | 13.56 (≈ 21.6 µM) | 74 | 26.25 (≈ 41.8 µM) |
| O=c1[nH]c(=S)[nH]c2c1C(c1ccccc1[N+](=O)[O-])Nc1nc3c(cc1-2)-c1[nH]c(=S)[nH]c(=O)c1C(c1ccccc1[N+](=O)[O-])N3 (stereo not drawn) | 13.6 (≈ 21.7 µM) | 73.6 | 30.47 (≈ 48.5 µM) |
| O=c1[nH]c2c(c(=O)[nH]1)C(c1ccccc1Cl)Nc1nc3c(cc1-2)-c1[nH]c(=O)[nH]c(=O)c1C(c1ccccc1Cl)N3 (stereo not drawn) | 12.42 (≈ 21.6 µM) | 80.8 | 25.51 (≈ 44.4 µM) |
| O=c1[nH]c(=S)[nH]c2c1C(c1cccc([N+](=O)[O-])c1)Nc1nc3c(cc1-2)-c1[nH]c(=S)[nH]c(=O)c1C(c1cccc([N+](=O)[O-])c1)N3 (stereo not drawn) | 14.34 (≈ 22.8 µM) | 70.1 | 34.93 (≈ 55.7 µM) |
| O=c1[nH]c(=S)[nH]c2c1C(c1ccc(Cl)cc1)Nc1cc3c(cc1-2)NC(c1ccc(Cl)cc1)c1c-3[nH]c(=S)[nH]c1=O (stereo not drawn) | 11.93 (≈ 19.7 µM) | 84.4 | 24.11 (≈ 39.8 µM) |
| O=c1[nH]c2c(c(=O)[nH]1)C(c1ccccc1)Nc1nc3c(cc1-2)-c1[nH]c(=O)[nH]c(=O)c1C(c1ccccc1)N3 (stereo not drawn) | 14.21 (≈ 28.1 µM) | 70.6 | 33.91 (≈ 67.1 µM) |
| O=c1[nH]c2c(c(=O)[nH]1)C(c1ccccc1[N+](=O)[O-])Nc1cc3c(cc1-2)NC(c1ccccc1[N+](=O)[O-])c1c-3[nH]c(=O)[nH]c1=O (stereo not drawn) | 12.07 (≈ 20.3 µM) | 82.7 | 29.08 (≈ 48.9 µM) |
| O=c1[nH]c(=S)[nH]c2c1C(c1ccc([N+](=O)[O-])cc1)Nc1cc3c(cc1-2)NC(c1ccc([N+](=O)[O-])cc1)c1c-3[nH]c(=S)[nH]c1=O (stereo not drawn) | 12.17 (≈ 19.4 µM) | 82.3 | 25.21 (≈ 40.2 µM) |
| O=c1[nH]c(=S)[nH]c2c1C(c1ccccc1)Nc1cc3c(cc1-2)NC(c1ccccc1)c1c-3[nH]c(=S)[nH]c1=O (stereo not drawn) | 12.62 (≈ 23.5 µM) | 79.6 | 32.1 (≈ 59.8 µM) |
